The subject of the assay is INS-1E cytokine-induced caspase-3/7, Caspase-Glo luminescence, 48 h. The assay can be described thus: suppression of cytokine-driven beta-cell apoptosis – INS-1E rat cells, luminescence, orthogonal assay for beta-cell apoptosis protection project, dose response (AID 463206).

Calls of active or inactive are those of the source.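 How the source made its calls: active means caspase luminescence falls with dose and the half-maximal concentration AC50 from the fitted curve is at or below a set limit; inconclusive means flat fit at 30 to 70% signal loss, or invalid fit; inactive means AC50 above the limit, or signal rises instead.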

For `O=C(N/N=C/c1cccnc1)c1ccc(NC(=O)C(c2ccccc2)c2ccccc2)cc1`, the AC50 – broadly, the concentration giving half of the maximal activity seen – was > 26 µM (inactive).
Take `Nc1c(N(CCC2=CCCCC2)C(=O)COc2ccc(F)cc2)c(=O)[nH]c(=O)n1Cc1ccccc1`: the AC50 was > 26 µM (inactive).
On to `COc1cccc(/C=N/NC(=O)C(=O)Nc2ccccc2OC(F)(F)C(F)F)c1O`, for which the AC50 was > 26 µM (inactive).
In the case of `CCN(CC)c1ccc2nc3ccccc3[n+](CC)c2c1` it was > 26 µM (inactive); in that of `Cc1cccc(/C=N/NC(=O)c2c(-c3ccccc3)noc2C)c1O`, > 26 µM (inactive).
Turning to `O=S(=O)(c1cccs1)N1CCN(CC(O)COc2cc(Cl)ccc2Cl)CC1` (stereo not drawn), the AC50 was > 26 µM (inactive).
In the case of `COc1ccc(-n2cc(-c3ccc(OC(F)F)cc3)[n+]3c2CCCCC3)cc1` it was > 26 µM (inactive); in that of `O=C(NC(NC(=S)Nc1ccc(Cl)cc1Cl)C(Cl)(Cl)Cl)c1cccc([N+](=O)[O-])c1` (stereo not drawn), > 26 µM (inactive).
In the case of `c1csc(-c2csc3ncnc(NCCCN4CCOCC4)c23)c1` it was > 26 µM (inactive); in that of `Cc1ncc(CO)c(/C=N/NC(=O)c2cc3c(s2)CCCC3)c1O`, > 26 µM (inactive); in that of `Cc1c(C(=O)N/N=C/c2c(O)ccc3ccccc23)nnn1-c1nonc1N`, > 26 µM (inactive).
In the case of `COc1ccccc1CNCC(O)Cn1c2ccccc2c2ccccc21` (stereo not drawn), the AC50 is > 26 µM (inactive).
Consider `Cc1cccc(N=Nc2ccc(O)c3ncccc23)c1`, for which the AC50 was > 26 µM (inactive).
With `Cc1nn(S(=O)(=O)c2ccc(Cl)cc2)c(C)c1Sc1ccc([N+](=O)[O-])cc1`, the AC50 is > 26 µM (inactive).
In the case of `O=S(=O)(c1ccc(Cl)cc1)N1CCN(c2ncnc3sccc23)CC1` it was > 26 µM (inactive); in that of `CCCCCCCCn1ccc(=N)cc1`, > 26 µM (inactive).
With `COC(=O)[C@@H](Cc1ccccc1)N(Cc1ccccc1)S(=O)(=O)N(Cc1ccccc1)[C@H](Cc1ccccc1)C(=O)OC`, the AC50 was > 26 µM (inactive).
On to `O=S(=O)(NCc1ccncc1)c1ccc(Br)s1`, for which the AC50 was > 26 µM (inactive).
In the case of `[O-][n+]1onc2c1CCc1c-2nn(-c2ccccc2Cl)[n+]1[O-]` it was 15.9 µM.
Take `Cc1cccc(NC(=S)N/N=C/c2ccc([N+](=O)[O-])s2)c1`: the AC50 was > 26 µM (inactive).
`CCC1CCCCN1C(=O)c1cc(COc2ccc(-n3cncn3)cc2)on1` (stereo not drawn): the AC50 was > 26 µM (inactive).
Turning to `COc1ccc(-c2c[n+](CC(=O)OC3CC(C)CCC3C(C)C)c3n2CCC3)cc1` (stereo not drawn), the AC50 is > 26 µM (inactive).
Consider `O=C(Nc1nc(-c2ccccn2)cs1)c1ccc(Br)s1`, for which the AC50 was > 26 µM (inactive).
In the case of `COc1ccc(CC2(CO)CCN(CC3=Cc4cc(Cl)ccc4OC3)CC2)cc1` it was > 26 µM (inactive); in that of `COc1cccc2sc(Nc3nc(-c4ccccn4)cs3)nc12`, > 26 µM (inactive); in that of `CCN(CC)C(=O)C1CCCN(C(=S)Nc2cccc3ccccc23)C1` (stereo not drawn), > 26 µM (inactive).
In the case of `CC(=O)c1c(C)[nH]c(C(=O)CN2CCN(S(=O)(=O)c3ccccc3)CC2)c1C` it was > 26 µM (inactive); in that of `COc1cc(-c2nc3ccc(C)cn3c2NCc2ccccc2)ccc1-c1cccc(Cl)c1`, > 26 µM (inactive).
In the case of `Cc1cc(C(=O)NC2CCCc3c2cnn3-c2cccc(C)c2C)n(C)n1` (stereo not drawn) it was > 26 µM (inactive).
`COc1cc(Cl)c(NC2=CC(=O)C(=O)c3ccccc32)c(OC)c1`: the AC50 was > 26 µM (inactive).
Consider `Cc1cccc(OCc2n(CC(=O)OC3CC(C)CCC3C(C)C)c3ccccc3[n+]2C)c1` (stereo not drawn), for which the AC50 is > 26 µM (inactive).
With `Cc1ccc(-c2c[n+](Cc3ccc(Cl)c(Cl)c3)c3n2CCC3)cc1`, the AC50 was > 26 µM (inactive).
For the molecule `Oc1ccc(-[n+]2c(-c3ccccc3)cc(-c3ccccc3)cc2-c2ccccc2)cc1`, the AC50 was > 26 µM (inactive).
